Data reported in PMC6627609, “Targeting Quorum Sensing: High-Throughput Screening to Identify Novel LsrK Inhibitors” (International Journal of Molecular Sciences, 2019).
Where a name gives a salt, the structure may show the parent alone.

What follows are compounds tested against LsrK (Salmonella typhimurium, UniProt Q8ZKQ6) (assay: biochemical). Settings: not given.
Format: biochemical, S. typhimurium

Sequence of LsrK (Q8ZKQ6 whole entry): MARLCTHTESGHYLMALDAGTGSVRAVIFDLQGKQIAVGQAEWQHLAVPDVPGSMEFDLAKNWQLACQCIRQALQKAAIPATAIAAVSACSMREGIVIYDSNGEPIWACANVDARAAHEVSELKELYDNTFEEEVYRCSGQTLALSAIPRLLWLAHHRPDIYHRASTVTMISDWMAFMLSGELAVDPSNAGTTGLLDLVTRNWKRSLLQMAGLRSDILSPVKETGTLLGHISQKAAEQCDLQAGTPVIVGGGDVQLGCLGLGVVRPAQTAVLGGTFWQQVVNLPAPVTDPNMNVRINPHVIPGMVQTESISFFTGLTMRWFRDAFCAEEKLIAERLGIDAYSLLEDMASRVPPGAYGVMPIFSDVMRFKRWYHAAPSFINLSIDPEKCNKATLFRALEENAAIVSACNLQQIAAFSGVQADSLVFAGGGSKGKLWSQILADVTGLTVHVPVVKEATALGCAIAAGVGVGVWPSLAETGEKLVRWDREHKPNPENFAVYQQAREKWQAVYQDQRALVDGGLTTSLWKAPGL

Going from CCN(CC)CCOC(=O)C(c1ccccc1)C1CCCCC1 (centres unmarked) [DROFENINE HYDROCHLORIDE] to CCOC(=O)c1cncn1[C@H](C)c1ccccc1 [ETOMIDATE], the inhibition at 50 µM rises from 0% to 2%.

Going from CNCC[C@H](Oc1cccc2ccccc12)c1cccs1 [DULOXETINE HYDROCHLORIDE] to CC(NCCC(c1ccccc1)c1ccccc1)c1ccccc1 (centres unmarked) [FENDILINE HYDROCHLORIDE], the inhibition at 50 µM falls from 1% to 0%.

First: CCCCOc1ccc(C(=O)CCN2CCCCC2)cc1 [DYCLONINE HYDROCHLORIDE]
Second: O=C(O)CCC(=O)c1ccc(-c2ccccc2)cc1 [FENBUFEN]
The inhibition at 50 µM of the first is higher: 131% for the first, 2% for the second.

Going from Cn1c(=O)c2c(ncn2CC(O)CO)n(C)c1=O (centres unmarked) [DYPHYLLINE] to CCc1cn([C@H]2C[C@H](O)[C@@H](CO)O2)c(=O)[nH]c1=O [EDOXUDINE], the inhibition at 50 µM falls from 1% to 0%.

First: COc1cc(C)c(C(=O)Oc2cc(C)c(C(=O)O)c(O)c2C)c(OC)c1C [D[…]]
Second: COc1cc2ccc(=O)oc2c(OC)c1OC [FRAXIDIN METHYL ETHER]
The inhibition at 50 µM of the first is higher: 35% for the first, 1% for the second.

Compared with O=c1c2ccccc2[se]n1-c1ccccc1 [EBSELEN], O=C(O)c1ccccc1Nc1cccc(C(F)(F)F)c1 [FLUFENAMIC ACID] is higher in inhibition at 50 µM: 6% for the first, 62% for the second.

Going from CC[N+](C)(C)c1cccc(O)c1 [EDROPHONIUM CHLORIDE] to CCC(N)C(O)c1ccc(O)c(O)c1 (centres unmarked) [ETHYLNOREPINEPHRINE HYDROCHLORIDE], the inhibition at 50 µM rises from 0% to 4%.

Going from O=c1oc2c(O)c(O)cc3c(=O)oc4c(O)c(O)cc1c4c23 [ELLAGIC ACID] to O=c1c(O)c(-c2ccc(O)c(O)c2)oc2cc(O)ccc12 [FISETIN], the inhibition at 50 µM rises from 7% to 33%.

First: CCn1cc(C(=O)O)c(=O)c2cc(F)c(N3CCNCC3)nc21 [ENOXACIN]
Second: CCN1CCN(c2cc3c(cc2F)c(=O)c(C(=O)O)cn3C2CC2)CC1 [ENROFLOXACIN]
The inhibition at 50 µM of the first is lower: 0% for the first, 1% for the second.

Going from CC1(C)[C@@H](O)CC[C@]2(C)[C@H]3C(=O)C=C4[C@@H]5C[C@@](C)(C(=O)O)CC[C@]5(C)CC[C@@]4(C)[C@]3(C)CC[C@@H]12 [ENOXOLONE] to C[C@H]1C(=O)CC[C@@H]2[C@]1(C)CC[C@H]1[C@@]2(C)CC[C@@]2(C)[C@@H]3CC(C)(C)CC[C@]3(C)CC[C@]12C [FRIEDELIN], the inhibition at 50 µM falls from 2% to 1%.

First: Oc1cc(O)c2c(c1)O[C@H](c1ccc(O)c(O)c1)[C@H](O)C2 [EPICATECHIN]
Second: Oc1cc(O)c2c(c1)O[C@H](c1cc(O)c(O)c(O)c1)[C@H](O)C2 [EPIGALLOCATECHIN]
The inhibition at 50 µM of the first is lower: 2% for the first, 89% for the second.

Compared with C[C@]12CC[C@H]3[C@@H](CCC4=CC(=O)CC[C@@]43C)[C@@H]1CC[C@H]2O [EPITESTOSTERONE], COc1ccc2c(c1)CC[C@@H]1[C@@H]2CC[C@]2(C)[C@@H](O)CC[C@@H]12 [ESTRADIOL METHYL ETHER] is higher in inhibition at 50 µM: 0% for the first, 3% for the second.

C[C@]12CC[C@H]3C(=CCc4cc(O)ccc43)[C@@H]1CCC2=O [EQUILIN] and C#C[C@]1(O)CC[C@H]2[C@@H]3CCc4cc(O)ccc4[C@H]3CC[C@@]21C [ETHINYL ESTRADIOL] are the same in inhibition at 50 µM: 1% for the first, 1% for the second.

Compared with CC(C)[C@@H](C)/C=C/[C@@H](C)[C@H]1CC[C@H]2C3=CC=C4C[C@@H](O)CC[C@]4(C)[C@H]3CC[C@]12C [ERGOSTEROL], CC(C)(C)NC(=O)[C@H]1CC[C@H]2[C@@H]3CC[C@H]4NC(=O)C=C[C@]4(C)[C@H]3CC[C@]12C [FINASTERIDE] is higher in inhibition at 50 µM: 0% for the first, 1% for the second.

First: CN1C[C@H](C(=O)N[C@]2(C)O[C@@]3(O)[C@@H]4CCCN4C(=O)[C@H](Cc4ccccc4)N3C2=O)C=C2c3cccc4[nH]cc(c34)C[C@H]21 [ERGOTAMINE TARTRATE]
Second: CC(C)(C(=O)O)c1ccc(C(O)CCCN2CCC(C(O)(c3ccccc3)c3ccccc3)CC2)cc1 (centres unmarked) [FEXOFENADINE HYDROCHLORIDE]
The inhibition at 50 µM of the first is higher: 2% for the first, 0% for the second.

First: CCC(=O)O[C@H]1[C@H](O[C@@H]2[C@@H](C)[C@H](O[C@H]3C[C@@](C)(OC)[C@@H](O)[C@H](C)O3)[C@@H](C)C(=O)O[C@H](CC)[C@@](C)(O)[C@H](O)[C@@H](C)C(=O)[C@H](C)C[C@@]2(C)O)O[C@H](C)C[C@@H]1N(C)C [ERYTHROMYCIN ESTOLATE]
Second: CCOC(=O)CCC(=O)O[C@H]1[C@H](O[C@@H]2[C@@H](C)[C@H](O[C@H]3C[C@@](C)(OC)[C@@H](O)[C@H](C)O3)[C@@H](C)C(=O)O[C@H](CC)[C@@](C)(O)[C@H](O)[C@@H](C)C(=O)[C@H](C)C[C@@]2(C)O)O[C@H](C)C[C@@H]1N(C)C [ERYTHROMYCIN ETHYLSUCCINATE]
The inhibition at 50 µM of the first is higher: 10% for the first, 1% for the second.

Going from CC[C@H]1OC(=O)[C@H](C)[C@@H](O[C@H]2C[C@@](C)(OC)[C@@H](O)[C@H](C)O2)[C@H](C)[C@@H](O[C@@H]2O[C@H](C)C[C@H](N(C)C)[C@H]2O)[C@](C)(O)C[C@@H](C)C(=O)[C@H](C)[C@@H](O)[C@]1(C)O [ERYTHROMYCIN] to CC(=O)OCC(=O)[C@@]12OC(C)(C)O[C@@H]1C[C@H]1[C@@H]3C[C@H](F)C4=CC(=O)C=C[C@]4(C)[C@@]3(F)[C@@H](O)C[C@@]12C [FLUOCINONIDE], the inhibition at 50 µM rises from 0% to 3%.

Going from CN(C)CCC[C@@]1(c2ccc(F)cc2)OCc2cc(C#N)ccc21 [ESCITALOPRAM OXALATE] to CC(C)n1c(/C=C/C(O)CC(O)CC(=O)O)c(-c2ccc(F)cc2)c2ccccc21 (centres unmarked) [FLUVASTATIN], the inhibition at 50 µM rises from 1% to 6%.

First: C[C@]12CC[C@@H]3c4ccc(O)cc4CC[C@H]3[C@@H]1CC[C@@H]2OC(=O)CCC1CCCC1 [ESTRADIOL CYPIONATE]
Second: CCCCC(=O)O[C@H]1CC[C@H]2[C@@H]3CCc4cc(O)ccc4[C@H]3CC[C@]12C [ESTRADIOL VALERATE]
The inhibition at 50 µM of the first is lower: 0% for the first, 3% for the second.

Compared with CCOc1ccc2nc3cc(N)ccc3c(N)c2c1 [ETHACRIDINE LACTATE], Nc1nc(=O)c2nc(CNc3ccc(C(=O)N[C@@H](CCC(=O)O)C(=O)O)cc3)cnc2[nH]1 [FOLIC ACID] is higher in inhibition at 50 µM: 1% for the first, 90% for the second.

First: C=C(CC)C(=O)c1ccc(OCC(=O)O)c(Cl)c1Cl [ETHACRYNIC ACID]
Second: O=C(O)c1ccccc1OP(=O)(O)O [FOSFOSAL]
The inhibition at 50 µM of the first is higher: 85% for the first, 0% for the second.

Compared with CCC1(C)CC(=O)NC1=O (centres unmarked) [ETHOSUXIMIDE], O=c1[nH]cc(F)c(=O)[nH]1 [FLUOROURACIL] is lower in inhibition at 50 µM: 17% for the first, 0% for the second.

First: COc1cc([C@@H]2c3cc4c(cc3[C@@H](O[C@@H]3O[C@@H]5CO[C@@H](C)O[C@H]5[C@H](O)[C@H]3O)[C@H]3COC(=O)[C@H]23)OCO4)cc(OC)c1O [ETOPOSIDE]
Second: C=C1C[C@@H]2[C@H](CC[C@]3(C)C(=O)CC[C@@H]23)[C@@]2(C)C=CC(=O)C=C12 [EXEMESTANE]
The inhibition at 50 µM of the first is lower: 1% for the first, 11% for the second.

Compared with CC(C)OC(=O)C(C)(C)Oc1ccc(C(=O)c2ccc(Cl)cc2)cc1 [FENOFIBRATE], Cc1cccc(C)c1NC(=O)c1ccccc1C(=O)O [FTAXILIDE] is higher in inhibition at 50 µM: 1% for the first, 4% for the second.

CS(=O)(=O)c1ccc([C@@H](O)[C@@H](CF)NC(=O)C(Cl)Cl)cc1 [FLORFENICOL] and CC(C)C(=O)Nc1ccc([N+](=O)[O-])c(C(F)(F)F)c1 [FLUTAMIDE] are the same in inhibition at 50 µM: 2% for the first, 2% for the second.

O=c1[nH]c(=O)n([C@H]2C[C@H](O)[C@@H](CO)O2)cc1F [FLOXURIDINE] and Nc1nc(F)nc2c1ncn2[C@@H]1O[C@H](COP(=O)(O)O)[C@@H](O)[C@@H]1O [FLUDARABINE PHOSPHATE] are the same in inhibition at 50 µM: 0% for the first, 0% for the second.

Going from Nc1[nH]c(=O)ncc1F [FLUCYTOSINE] to C[C@@H]1O[C@@H]1P(=O)(O)O [FOSFOMYCIN CALCIUM], the inhibition at 50 µM rises from 0% to 1%.

Going from CC(=O)OCC(=O)[C@@]1(O)CC[C@H]2[C@@H]3CCC4=CC(=O)CC[C@]4(C)[C@@]3(F)[C@@H](O)C[C@@]21C [FLUDROCORTISONE ACETATE] to O=C(O)P(=O)(O)O [FOSCARNET SODIUM], the inhibition at 50 µM falls from 2% to 1%.

Compound O=C1OC2(c3ccc(O)cc3Oc3cc(O)ccc32)c2ccccc21 [FLUORESCEIN] has an inhibition at 50 µM of 1%.

Same assay, conditions: 50 µM

Compared with CCC(C)C(=O)O[C@@H]1C[C@@]2(C)[C@H](c3ccoc3)OC(=O)CC23OC2(C)OC34[C@H](OC(=O)C(C)C)[C@@]3(O)[C@@H](OC(=O)C5(C)OC5C)[C@@]5(C)C[C@]3(O)[C@@](C)([C@H]5CC(=O)OC)C14O2 (some centres unmarked) [ENTANDROPHRAGMIN], CC(=O)O[C@@H]1CC2C(C)(C)C(=O)C3OC3[C@]2(C)C2CC[C@@]3(C)[C@H](c4ccoc4)OC(=O)C4OC43[C@@]21C (some centres unmarked) [EPOXYGEDUNIN] is lower in “Inhibition (%)” value: 1 for the first, 0 for the second.

Going from O=C(O[C@@H]1Cc2c(O)cc(O)cc2O[C@@H]1c1ccc(O)c(O)c1)c1cc(O)c(O)c(O)c1 [EPICATECHIN MONOGALLATE] to O=C(O[C@@H]1Cc2c(O)cc(O)cc2O[C@@H]1c1cc(O)c(O)c(O)c1)c1cc(O)c(O)c(O)c1 [EPIGALLOCATECHIN-3-MONOGALLATE], the “Inhibition (%)” value rises from 86 to 87.

First: O=C(Oc1cc(O)cc2c1C[C@@H](OC(=O)c1cc(O)c(O)c(O)c1)[C@@H](c1cc(O)c(O)c(O)c1)O2)c1cc(O)c(O)c(O)c1 [EPIGALLOCATECHIN 3.5-DIGALLATE]
Second: O=C([O-])c1ccccc1-c1c2cc(I)c(=O)c(I)c-2oc2c(I)c([O-])c(I)cc12.[Na+].[Na+] [ERYTHROSINE SODIUM]
The “Inhibition (%)” value of the first is higher: 88 for the first, 69 for the second.

Compared with CC(=O)O[C@H]1CC[C@@]2(C)C(=CC=C3[C@@H]4CC[C@H]([C@H](C)/C=C/[C@H](C)C(C)C)[C@@]4(C)CC[C@@H]32)C1 [ERGOSTEROL ACETATE], CC(=O)O[C@H]1CCC2(C)C3=C(CCC2C1(C)C)[C@@]1(C)CC[C@@H](C(C)CCC=C(C)C)[C@]1(C)CC3 (some centres unmarked) [EUPHOL ACETATE] is lower in “Inhibition (%)” value: 2 for the first, 1 for the second.

First: C[C@]12CCC3c4ccc(OS(=O)(=O)[O-])cc4CCC3C1CC[C@H]2O.[Na+] (some centres unmarked) [ESTRADIOL-3-SULFATE. SODIUM SALT]
Second: CC(=O)O[C@H]1[C@H]2[C@@H](OC(=O)Cc3ccccc3)[C@@H](C)C[C@]2(OC(C)=O)C(=O)/C(C)=C/[C@@H]2[C@H](CC[C@@]13CO3)C2(C)C [EUPHORBIASTEROID]
The “Inhibition (%)” value of the first is lower: 0 for the first, 1 for the second.

CCc1cc(Cl)c(OC)c(C(=O)NC[C@@H]2CCCN2CC)c1O.Cl [ETICLOPRIDE HYDROCHLORIDE] was tested, and the “Inhibition (%)” value was 2.
